# Article PMC12136037, “Type II kinase inhibitors that target Parkinson’s disease–associated LRRK2” (Science Advances, 2025)
# Where “and” joins values, the source holds several entries; their conditions need not be identical. Equal values may be shown once. Read-outs that look alike come from different tables or passages of the source.
# Key:
# 350 wild-type kinases [1] = target: T1, 350 wild-type kinases (Homo sapiens, UniProt O60566); test: 33PanQinase kinome-wide selectivity profile (Reaction Biology); type: biochemical; conditions: kinase BUB1B, ATP 0,3 µM, singlicate
# T1 construct: purchased Reaction Biology (assay service)
# Method: (§1) Compound RN341 was tested at two concentrations of 1 and 10 μM against a panel of 350 wild-type kinases in the ^33PanQinase assay. The assay was performed by Reaction Biology (www.reactionbiology.com/services/kinase-assays/kinase-panel-screening/).
# 350 wild-type kinases [2] = target: T2, 350 wild-type kinases (Homo sapiens, UniProt P37023); test: as above; type: biochemical; conditions: kinase ACVRL1, ATP 1 µM, singlicate
# T2 construct: purchased Reaction Biology (assay service)
# Method: as §1
# 350 wild-type kinases [3] = target: T3, 350 wild-type kinases (Homo sapiens, UniProt P15056); test: as above; type: biochemical; conditions: kinase BRAF, ATP 1 µM, singlicate
# T3 construct: purchased Reaction Biology (assay service)
# Method: as §1
# 350 wild-type kinases [4] = target: T4, 350 wild-type kinases (Homo sapiens, UniProt Q00537); test: as above; type: biochemical; conditions: kinase CDK17/p35NCK, ATP 3 µM, singlicate
# T4 construct: purchased Reaction Biology (assay service)
# Method: as §1
# 350 wild-type kinases [5] = target: T5, 350 wild-type kinases (Homo sapiens, UniProt Q9UQB9); test: as above; type: biochemical; conditions: kinase AuroraC, ATP 3 µM, singlicate
# T5 construct: purchased Reaction Biology (assay service)
# Method: as §1
# 350 wild-type kinases [6] = target: T6, 350 wild-type kinases (Homo sapiens, UniProt P50613); test: as above; type: biochemical; conditions: kinase CDK7/CycH/MAT1, ATP 1 µM, singlicate
# T6 construct: purchased Reaction Biology (assay service)
# Method: as §1
# 350 wild-type kinases [7] = target: T7, 350 wild-type kinases (Homo sapiens, UniProt Q13705); test: as above; type: biochemical; conditions: kinase ACVR2B, ATP 1 µM, singlicate
# T7 construct: purchased Reaction Biology (assay service)
# Method: as §1
# 350 wild-type kinases [8] = target: T8, 350 wild-type kinases (Homo sapiens, UniProt Q00536); test: as above; type: biochemical; conditions: kinase CDK16/CycY, ATP 0,3 µM, singlicate
# T8 construct: purchased Reaction Biology (assay service)
# Method: as §1
# SLK = target: T9, SLK (Homo sapiens, UniProt Q9H2G2); test: nanoBRET off-target validation; type: cell-based
# T9 construct: host or cells: HEK293T (ATCC CRL-3216)
# Method: (§2) The assay was performed as described previously ([61]). In brief, full-length kinases as listed in table S6 were obtained as plasmids cloned in frame with terminal NanoLuc-fusion (gift from Promega; table S6). […] Serially diluted inhibitor and corresponding tracer as listed in table S6 at the Tracer KD concentration taken from TracerDB (tracerdb.org) ([62]) were pipetted into white 384-well plates (Greiner, 781207) using an ECHO acoustic dispenser (Labcyte). The corresponding protein-transfected cells were added and reseeded at a density of 2 × 10^5 cells/ml after trypsinization and resuspending in Opti-MEM without phenol red (Life Technologies). The system was allowed to equilibrate for 3 hours at 37°C/5% CO2 before bioluminescence resonance energy transfer (BRET) measurements. To measure BRET, NanoBRET NanoGlo Substrate + extracellular NanoLuc Inhibitor (Promega, N2540) was added as per the manufacturer’s protocol, and filtered luminescence was measured on a PHERAstar plate reader (BMG Labtech) equipped with a luminescence filter pair [450-nm BP filter (donor) and 610-nm LP filter (acceptor)]. […] (For step-by-step protocol, see www.eubopen.org/sites/www.eubopen.org/files/attachments/2021/NanoBRET-IC50_v1_0.pdf.)
# MAPK14 = target: T10, MAPK14 (Homo sapiens, UniProt Q16539); test: nanoBRET off-target validation; type: cell-based
# T10 construct: host or cells: HEK293T (ATCC CRL-3216)
# Method: as §2
# T10 sequence (Q16539 whole entry): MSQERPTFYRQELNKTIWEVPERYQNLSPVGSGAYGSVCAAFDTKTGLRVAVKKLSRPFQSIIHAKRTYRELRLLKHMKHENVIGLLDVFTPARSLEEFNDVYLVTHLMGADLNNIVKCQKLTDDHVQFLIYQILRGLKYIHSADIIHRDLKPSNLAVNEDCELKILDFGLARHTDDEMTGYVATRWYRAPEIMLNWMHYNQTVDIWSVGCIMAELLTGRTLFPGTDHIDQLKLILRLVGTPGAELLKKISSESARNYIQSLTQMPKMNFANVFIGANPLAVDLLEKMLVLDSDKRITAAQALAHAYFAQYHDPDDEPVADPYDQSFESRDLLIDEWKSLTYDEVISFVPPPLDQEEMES
# T9 sequence (Q9H2G2 whole entry): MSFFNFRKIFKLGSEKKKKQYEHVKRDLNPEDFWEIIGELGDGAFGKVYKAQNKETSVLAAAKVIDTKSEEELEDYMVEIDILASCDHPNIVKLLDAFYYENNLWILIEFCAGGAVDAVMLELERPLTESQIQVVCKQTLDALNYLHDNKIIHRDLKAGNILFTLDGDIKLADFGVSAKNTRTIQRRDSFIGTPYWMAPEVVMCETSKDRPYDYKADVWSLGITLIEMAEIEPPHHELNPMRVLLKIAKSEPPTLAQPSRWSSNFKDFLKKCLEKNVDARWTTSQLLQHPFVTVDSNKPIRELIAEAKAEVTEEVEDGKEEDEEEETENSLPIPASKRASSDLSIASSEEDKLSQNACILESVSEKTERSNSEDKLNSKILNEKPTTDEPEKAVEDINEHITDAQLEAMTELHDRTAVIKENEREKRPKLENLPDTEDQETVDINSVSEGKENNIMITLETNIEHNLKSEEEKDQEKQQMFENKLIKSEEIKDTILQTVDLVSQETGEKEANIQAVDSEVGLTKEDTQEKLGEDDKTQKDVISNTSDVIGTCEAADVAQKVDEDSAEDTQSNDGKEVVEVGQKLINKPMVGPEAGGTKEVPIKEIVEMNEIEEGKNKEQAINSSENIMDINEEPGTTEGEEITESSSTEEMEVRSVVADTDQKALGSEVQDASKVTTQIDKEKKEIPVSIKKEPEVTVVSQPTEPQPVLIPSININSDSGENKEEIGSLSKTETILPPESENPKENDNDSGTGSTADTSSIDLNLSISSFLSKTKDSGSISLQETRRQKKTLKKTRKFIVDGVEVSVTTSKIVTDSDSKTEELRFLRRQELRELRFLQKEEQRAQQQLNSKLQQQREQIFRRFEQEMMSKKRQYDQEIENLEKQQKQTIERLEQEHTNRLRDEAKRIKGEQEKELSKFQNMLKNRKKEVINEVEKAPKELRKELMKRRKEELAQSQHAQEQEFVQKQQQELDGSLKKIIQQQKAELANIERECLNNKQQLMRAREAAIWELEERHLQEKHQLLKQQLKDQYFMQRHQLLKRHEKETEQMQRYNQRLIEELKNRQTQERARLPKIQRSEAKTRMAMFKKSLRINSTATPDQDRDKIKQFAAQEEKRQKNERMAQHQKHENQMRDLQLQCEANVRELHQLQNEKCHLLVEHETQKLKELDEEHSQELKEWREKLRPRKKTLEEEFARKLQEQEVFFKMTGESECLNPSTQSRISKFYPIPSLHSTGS
# T7 sequence (Q13705 19-512): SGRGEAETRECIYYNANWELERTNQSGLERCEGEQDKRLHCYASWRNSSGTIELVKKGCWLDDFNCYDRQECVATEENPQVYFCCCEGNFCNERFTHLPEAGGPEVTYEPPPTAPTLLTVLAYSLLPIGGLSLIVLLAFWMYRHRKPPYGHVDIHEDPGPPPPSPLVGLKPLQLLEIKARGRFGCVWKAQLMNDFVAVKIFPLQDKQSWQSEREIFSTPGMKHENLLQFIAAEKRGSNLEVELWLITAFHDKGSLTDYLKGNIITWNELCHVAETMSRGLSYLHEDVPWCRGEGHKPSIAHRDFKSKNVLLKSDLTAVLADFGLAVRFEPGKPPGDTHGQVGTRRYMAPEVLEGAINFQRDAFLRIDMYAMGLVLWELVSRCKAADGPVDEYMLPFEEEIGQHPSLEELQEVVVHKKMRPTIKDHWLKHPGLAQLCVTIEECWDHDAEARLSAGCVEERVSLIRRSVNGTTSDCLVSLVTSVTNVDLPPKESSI
# T8 sequence (Q00536 whole entry): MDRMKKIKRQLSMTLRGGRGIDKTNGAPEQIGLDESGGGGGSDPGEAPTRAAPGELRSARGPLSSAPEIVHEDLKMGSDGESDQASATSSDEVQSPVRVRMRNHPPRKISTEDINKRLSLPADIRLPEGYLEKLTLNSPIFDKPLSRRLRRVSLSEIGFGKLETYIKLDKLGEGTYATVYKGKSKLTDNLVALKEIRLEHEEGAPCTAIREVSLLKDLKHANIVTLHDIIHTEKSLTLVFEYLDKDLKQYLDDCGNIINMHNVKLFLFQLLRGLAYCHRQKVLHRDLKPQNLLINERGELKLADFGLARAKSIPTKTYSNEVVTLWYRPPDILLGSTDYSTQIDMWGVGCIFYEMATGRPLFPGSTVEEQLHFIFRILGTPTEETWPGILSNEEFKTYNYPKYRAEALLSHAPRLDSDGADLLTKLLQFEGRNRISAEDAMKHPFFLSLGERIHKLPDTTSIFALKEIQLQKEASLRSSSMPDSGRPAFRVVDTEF
# T4 sequence (Q00537 whole entry): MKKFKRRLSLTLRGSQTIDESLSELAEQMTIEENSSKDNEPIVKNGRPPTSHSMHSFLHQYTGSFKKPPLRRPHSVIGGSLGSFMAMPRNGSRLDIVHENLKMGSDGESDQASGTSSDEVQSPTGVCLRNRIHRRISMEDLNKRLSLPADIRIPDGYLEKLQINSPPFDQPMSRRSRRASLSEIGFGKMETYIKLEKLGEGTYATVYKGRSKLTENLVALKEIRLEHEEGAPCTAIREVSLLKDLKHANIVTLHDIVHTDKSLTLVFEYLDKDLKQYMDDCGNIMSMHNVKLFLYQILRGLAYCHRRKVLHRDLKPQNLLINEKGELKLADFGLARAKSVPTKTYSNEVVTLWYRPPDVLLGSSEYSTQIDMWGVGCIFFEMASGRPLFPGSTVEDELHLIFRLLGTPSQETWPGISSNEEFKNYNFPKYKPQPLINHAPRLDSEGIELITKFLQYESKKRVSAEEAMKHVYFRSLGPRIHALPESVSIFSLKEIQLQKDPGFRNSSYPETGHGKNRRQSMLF
# T1 sequence (O60566 whole entry): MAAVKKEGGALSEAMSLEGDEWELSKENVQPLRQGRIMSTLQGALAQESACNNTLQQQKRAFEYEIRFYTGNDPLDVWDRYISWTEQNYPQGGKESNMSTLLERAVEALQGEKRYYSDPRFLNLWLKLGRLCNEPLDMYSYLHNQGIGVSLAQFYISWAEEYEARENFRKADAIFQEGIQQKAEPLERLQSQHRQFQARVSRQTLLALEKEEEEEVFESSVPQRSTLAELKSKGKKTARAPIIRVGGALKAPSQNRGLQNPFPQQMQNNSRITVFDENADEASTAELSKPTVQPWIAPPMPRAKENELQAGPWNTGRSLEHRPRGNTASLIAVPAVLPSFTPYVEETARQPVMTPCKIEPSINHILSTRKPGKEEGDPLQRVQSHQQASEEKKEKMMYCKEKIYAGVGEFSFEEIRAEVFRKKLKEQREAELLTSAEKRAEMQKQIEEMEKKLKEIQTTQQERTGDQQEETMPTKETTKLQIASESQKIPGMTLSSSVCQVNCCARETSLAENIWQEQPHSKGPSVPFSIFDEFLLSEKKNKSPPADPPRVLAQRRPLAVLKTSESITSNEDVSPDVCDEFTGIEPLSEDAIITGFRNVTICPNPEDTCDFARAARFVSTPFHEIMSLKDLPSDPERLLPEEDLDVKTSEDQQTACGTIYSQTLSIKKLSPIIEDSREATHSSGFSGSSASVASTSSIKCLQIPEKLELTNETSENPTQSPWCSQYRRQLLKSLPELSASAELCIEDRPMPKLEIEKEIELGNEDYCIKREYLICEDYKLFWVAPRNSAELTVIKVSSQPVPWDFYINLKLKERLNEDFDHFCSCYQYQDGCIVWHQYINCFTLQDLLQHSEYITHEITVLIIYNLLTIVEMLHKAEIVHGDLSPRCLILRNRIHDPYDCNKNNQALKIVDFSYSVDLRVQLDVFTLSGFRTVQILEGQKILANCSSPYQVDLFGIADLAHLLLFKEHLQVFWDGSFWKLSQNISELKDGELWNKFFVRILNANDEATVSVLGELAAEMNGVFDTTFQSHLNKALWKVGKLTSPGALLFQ
# T3 sequence (P15056 whole entry): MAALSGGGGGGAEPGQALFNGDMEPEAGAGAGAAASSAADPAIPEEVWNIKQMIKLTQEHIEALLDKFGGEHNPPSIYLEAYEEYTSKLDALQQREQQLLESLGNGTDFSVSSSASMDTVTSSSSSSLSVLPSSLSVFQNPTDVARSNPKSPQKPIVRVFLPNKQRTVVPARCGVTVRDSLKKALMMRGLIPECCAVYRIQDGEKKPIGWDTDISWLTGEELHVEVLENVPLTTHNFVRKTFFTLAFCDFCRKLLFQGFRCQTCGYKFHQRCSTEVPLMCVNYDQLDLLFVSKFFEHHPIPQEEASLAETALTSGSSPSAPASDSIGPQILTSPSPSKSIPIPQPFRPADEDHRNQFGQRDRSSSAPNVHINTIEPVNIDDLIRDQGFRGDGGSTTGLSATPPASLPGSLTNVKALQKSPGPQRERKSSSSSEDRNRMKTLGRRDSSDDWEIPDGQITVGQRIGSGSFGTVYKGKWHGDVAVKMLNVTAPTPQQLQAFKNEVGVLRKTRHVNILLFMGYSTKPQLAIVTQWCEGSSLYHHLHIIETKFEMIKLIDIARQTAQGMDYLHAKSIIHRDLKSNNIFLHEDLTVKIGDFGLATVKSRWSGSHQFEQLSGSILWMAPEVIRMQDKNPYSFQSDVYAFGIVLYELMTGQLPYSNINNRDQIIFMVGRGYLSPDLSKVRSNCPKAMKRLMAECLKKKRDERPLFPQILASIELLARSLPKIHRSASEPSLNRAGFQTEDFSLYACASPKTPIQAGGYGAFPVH
smiles,measurement,setting,value
CCSc1nc(NC)c2c(-c3cccc(NC(=O)Nc4cc(C(C)(C)C)nn4-c4ccc(C)cc4)c3)c[nH]c2n1 [Compound 32],"Residual activity (% of control), BUB1B",350 wild-type kinases [1]; Assay Conc. 1.0E-05 M,85 % of control
same,"Residual activity (% of control), BUB1B",350 wild-type kinases [1]; Assay Conc. 1.0E-06 M,119 % of control
same,"Residual activity (% of control), ACVRL1",350 wild-type kinases [2]; Assay Conc. 1.0E-05 M,80 % of control
same,"Residual activity (% of control), ACVRL1",350 wild-type kinases [2]; Assay Conc. 1.0E-06 M,97 % of control
same,"Residual activity (% of control), BRAF",350 wild-type kinases [3]; Assay Conc. 1.0E-05 M,65 % of control
same,"Residual activity (% of control), BRAF",350 wild-type kinases [3]; Assay Conc. 1.0E-06 M,98 % of control
same,"Residual activity (% of control), CDK17/p35NCK",350 wild-type kinases [4]; Assay Conc. 1.0E-05 M,53 % of control
same,"Residual activity (% of control), CDK17/p35NCK",350 wild-type kinases [4]; Assay Conc. 1.0E-06 M,89 % of control
same,"Residual activity (% of control), AuroraC",350 wild-type kinases [5]; Assay Conc. 1.0E-05 M,77 % of control
same,"Residual activity (% of control), AuroraC",350 wild-type kinases [5]; Assay Conc. 1.0E-06 M,105 % of control
same,"Residual activity (% of control), CDK7/CycH/MAT1",350 wild-type kinases [6]; Assay Conc. 1.0E-05 M,75 % of control
same,"Residual activity (% of control), CDK7/CycH/MAT1",350 wild-type kinases [6]; Assay Conc. 1.0E-06 M,100 % of control
same,"Residual activity (% of control), ACVR2B",350 wild-type kinases [7]; Assay Conc. 1.0E-05 M,98 % of control
same,"Residual activity (% of control), ACVR2B",350 wild-type kinases [7]; Assay Conc. 1.0E-06 M,123 % of control
same,"Residual activity (% of control), CDK16/CycY",350 wild-type kinases [8]; Assay Conc. 1.0E-05 M,88 % of control
same,"Residual activity (% of control), CDK16/CycY",350 wild-type kinases [8]; Assay Conc. 1.0E-06 M,113 % of control
same,EC50,SLK,> 20 µM
same,nanoBRET response normalized to 0% (no tracer) and 100% (no inhibitor) control,"SLK; SLK, inhibitor 8 nM, two replicates, listed as RN341, 0.008 µM",107.417%
same,NanoBRET tracer signal (% of no-inhibitor control) at 0.008 µM,"SLK; SLK, inhibitor 8 nM, two replicates, read-out: nanoBRET response normalized to 0% (no tracer) and 100% (no inhibitor) control",106%
same,nanoBRET response normalized to 0% (no tracer) and 100% (no inhibitor) control,"SLK; SLK, inhibitor 16 nM, two replicates, listed as RN341, 0.016 µM",115.381%
same,NanoBRET tracer signal (% of no-inhibitor control) at 0.016 µM,"SLK; SLK, inhibitor 16 nM, two replicates, read-out: nanoBRET response normalized to 0% (no tracer) and 100% (no inhibitor) control",113%
same,NanoBRET tracer signal (% of no-inhibitor control) at 0.05 µM,"SLK; SLK, inhibitor 50 nM, two replicates, read-out: nanoBRET response normalized to 0% (no tracer) and 100% (no inhibitor) control",102% and 106%
same,nanoBRET response normalized to 0% (no tracer) and 100% (no inhibitor) control,"SLK; SLK, inhibitor 250 nM, two replicates, listed as RN341, […]",119.576%
same,NanoBRET tracer signal (% of no-inhibitor control) at […],"SLK; SLK, inhibitor 250 nM, two replicates, read-out: nanoBRET response normalized to 0% (no tracer) and 100% (no inhibitor) control",107%
same,nanoBRET response normalized to 0% (no tracer) and 100% (no inhibitor) control,"SLK; SLK, inhibitor 500 nM, two replicates, listed as RN341, 0.5 µM",122.526%
same,NanoBRET tracer signal (% of no-inhibitor control) at 0.5 µM,"SLK; SLK, inhibitor 500 nM, two replicates, read-out: nanoBRET response normalized to 0% (no tracer) and 100% (no inhibitor) control",118%
same,nanoBRET response normalized to 0% (no tracer) and 100% (no inhibitor) control,"SLK; SLK, inhibitor 2500 nM, two replicates, listed as RN341, […]",114.832%
same,NanoBRET tracer signal (% of no-inhibitor control) at […],"SLK; SLK, inhibitor 2500 nM, two replicates, read-out: nanoBRET response normalized to 0% (no tracer) and 100% (no inhibitor) control",117%
same,nanoBRET response normalized to 0% (no tracer) and 100% (no inhibitor) control,"SLK; SLK, inhibitor 5000 nM, two replicates, listed as RN341, 5 µM",116.499%
same,NanoBRET tracer signal (% of no-inhibitor control) at 5 µM,"SLK; SLK, inhibitor 5000 nM, two replicates, read-out: nanoBRET response normalized to 0% (no tracer) and 100% (no inhibitor) control",105%
same,nanoBRET response normalized to 0% (no tracer) and 100% (no inhibitor) control,"SLK; SLK, inhibitor 25000 nM, two replicates, listed as RN341, 25 µM",86.6362%
same,NanoBRET tracer signal (% of no-inhibitor control) at 25 µM,"SLK; SLK, inhibitor 25000 nM, two replicates, read-out: nanoBRET response normalized to 0% (no tracer) and 100% (no inhibitor) control",83.9%
same,nanoBRET response normalized to 0% (no tracer) and 100% (no inhibitor) control,"MAPK14; MAPK14, inhibitor 8 nM, two replicates, listed as RN341, 0.008 µM",98.3554%
same,remaining activity at 0.008 µM,"MAPK14; MAPK14, inhibitor 8 nM, two replicates, read-out: nanoBRET response normalized to 0% (no tracer) and 100% (no inhibitor) control",100%
same,nanoBRET response normalized to 0% (no tracer) and 100% (no inhibitor) control,"MAPK14; MAPK14, inhibitor 16 nM, two replicates, listed as RN341, 0.016 µM",103.532%
same,remaining activity at 0.016 µM,"MAPK14; MAPK14, inhibitor 16 nM, two replicates, read-out: nanoBRET response normalized to 0% (no tracer) and 100% (no inhibitor) control",96.2%
same,nanoBRET response normalized to 0% (no tracer) and 100% (no inhibitor) control,"MAPK14; MAPK14, inhibitor 50 nM, two replicates, listed as RN341, 0.05 µM",95.4254%
same,remaining activity at 0.05 µM,"MAPK14; MAPK14, inhibitor 50 nM, two replicates, read-out: nanoBRET response normalized to 0% (no tracer) and 100% (no inhibitor) control",90.1%
same,nanoBRET response normalized to 0% (no tracer) and 100% (no inhibitor) control,"MAPK14; MAPK14, inhibitor 250 nM, two replicates, listed as RN341, […]",83.4876%
same,remaining activity at […],"MAPK14; MAPK14, inhibitor 250 nM, two replicates, read-out: nanoBRET response normalized to 0% (no tracer) and 100% (no inhibitor) control",73.2%
same,nanoBRET response normalized to 0% (no tracer) and 100% (no inhibitor) control,"MAPK14; MAPK14, inhibitor 500 nM, two replicates, listed as RN341, 0.5 µM",52.7705%
same,remaining activity at 0.5 µM,"MAPK14; MAPK14, inhibitor 500 nM, two replicates, read-out: nanoBRET response normalized to 0% (no tracer) and 100% (no inhibitor) control",57.4%
same,nanoBRET response normalized to 0% (no tracer) and 100% (no inhibitor) control,"MAPK14; MAPK14, inhibitor 2500 nM, two replicates, listed as RN341, […]",49.0355%
same,remaining activity at […],"MAPK14; MAPK14, inhibitor 2500 nM, two replicates, read-out: nanoBRET response normalized to 0% (no tracer) and 100% (no inhibitor) control",48.5%
same,nanoBRET response normalized to 0% (no tracer) and 100% (no inhibitor) control,"MAPK14; MAPK14, inhibitor 5000 nM, two replicates, listed as RN341, 5 µM",40.5445%
same,remaining activity at 5 µM,"MAPK14; MAPK14, inhibitor 5000 nM, two replicates, read-out: nanoBRET response normalized to 0% (no tracer) and 100% (no inhibitor) control",48.2%
same,nanoBRET response normalized to 0% (no tracer) and 100% (no inhibitor) control,"MAPK14; MAPK14, inhibitor 25000 nM, two replicates, listed as RN341, 25 µM",17.1717%
same,remaining activity at 25 µM,"MAPK14; MAPK14, inhibitor 25000 nM, two replicates, read-out: nanoBRET response normalized to 0% (no tracer) and 100% (no inhibitor) control",25.4%
same,EC50,"MAPK14; in cellulo nanoBRET, 293T cells",< 5 µM and 1.7 µM
